No end group written: not given here.
Key:
[1] = test system: GAPDH mRNA in RERF-LC-MA cell; assay: GAPDH mRNA expression in cancer cells by qPCR; format: cell-based, human; conditions: RERF-LC-MA cell (only in this cancer cell line), 24 hours after addition
Description: (§1) The peptides were added to the cancer cells and osteoclasts to determine a change in the expression of each molecular group resulting from the interaction between the peptide and the cancer cells or between the peptide and osteoclasts by confirming the expression of mRNA using quantitative polymerase chain reaction (qPCR).
As the cancer cells, those as shown in Example 1 were used.
(§2) The cancer cells and the osteoclasts were separately inoculated into a 6-well plate at a density of 1×10^5 to 2×10^5 cells per well. Twenty-four hours later, the medium was changed to D-MEM (1% FCS, 2 mM L-glu). Another 24 hours later, the medium was changed, and at the same time the peptide A or the control was added. After 24 hours, the cells were collected and extraction of the RNA was conducted.

[2] = test system: mRNA of the VEGFR1, RECK, MMP9 and MMP14 in the osteoclasts; assay: mRNA expression of molecule groups in osteoclasts by qPCR; format: cell-based; conditions: peptide A vs scrambled peptide, 24 hours after addition
Description: as §1
The following molecule groups were used which are expressed in the cancer cells and/or osteoclasts as reported in Yoko Morioka et al.: “The roles of MMPs and RECK in cancer progression”, Cell Technology. Vol. 28, No. 7, 659-679 (2009).
as §2

[3] = test system: human prostate cancer cell line PC-3; assay: Inhibition of proliferation of cancer cells (XTT based Cell Proliferation Kit), PC-3; conditions: peptide added, incubation at 37° C. for three days; data not shown
Description: (§3) The human pulmonary small cell carcinoma cell line RERF-LC-MA, the human prostate cancer cell line PC-3, and the human breast cancer cell line MCF-7 were used as the cancer cells.
(§4) A 96-well plate was inoculated with the above-mentioned cells at a density of 0.6×10^3 to 1.0×10^3 cells per well, and then cultured at 37° C. for three days. Then, cell proliferation was quantified using the Cell Proliferation Kit (XTT based).
(§5) Next, the above-mentioned peptides were separately added to the culture system at concentrations of 0 μg/mL, 1 μg/mL, 5 μg/mL and 10 μg/m, followed by incubation at 37° C. for three days. After completion of the incubation, the number of cancer cells was counted.

[4] = test system: human pulmonary small cell carcinoma cell line RERF-LC-MA; assay: Inhibition of proliferation of cancer cells (XTT based Cell Proliferation Kit), RERF-LC-MA; conditions: peptide added at 5 μg/mL or 10 μg/m, incubation at 37° C. for three days; p=0.031 vs scrambled peptide control
Description: as §3, §4, §5

[5] = test system: human breast cancer cell line MCF-7; assay: Inhibition of proliferation of cancer cells (XTT based Cell Proliferation Kit), MCF-7; conditions: peptide added, incubation at 37° C. for three days; data not shown
Description: as §3, §4, §5

Sequence: GQNGSTPDGSTHFPSWEMAANEPLKTHRE [peptide A, 29-mer peptide derived from the TCTA protein, containing extracellular domain GQN]
- GAPDH mRNA expression [1]: reduced
- expression of mRNA of MMP9 in the osteoclasts [2]: no significant difference
- expression of mRNA of MMP14 in the osteoclasts [2]: no significant difference
- expression of mRNA of RECK in the osteoclasts [2]: no significant difference
- expression of mRNA of VEGFR1 in the osteoclasts [2]: no significant difference
- inhibitory effect on proliferation of the PC-3 cells [3]: almost no inhibitory effect
- proliferation of the RERF-LC-MA cells (reduced to) [4]: about 85%
- inhibitory effect on proliferation of the MCF-7 cells [5]: almost no inhibitory effect

— patent US20130288982A1, “THERAPEUTIC AGENT FOR PULMONARY SMALL CELL CARCINOMA” (TOKYO WOMEN'S MEDICAL UNIVERSITY, priority 2009, published 2013)
